# Assay results as given in PubChem BioAssay (NCI).
#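 Results reflect a 48-hour exposure of cells in 96-well plates to compound at five concentrations. At the GI50, growth is halved. TGI marks complete inhibition of growth.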
# Key:
# Assay in all cases: DTP human tumour cell line panel, 48 h
# SK-OV-3 ovarian = tested on: SK-OV-3 ovarian
# SF-295 CNS = tested on: SF-295 CNS
# UACC-62 melanoma = tested on: UACC-62 melanoma
# SF-539 CNS = tested on: SF-539 CNS
# MALME-3M melanoma = tested on: MALME-3M melanoma
# HOP-62 NSCLC = tested on: HOP-62 NSCLC
# NCI-H23 lung = tested on: NCI-H23 lung
# HOP-92 NSCLC = tested on: HOP-92 NSCLC
SMILES,TGI (SK-OV-3 ovarian) [µM],TGI (SF-295 CNS) [µM],TGI (UACC-62 melanoma) [µM],TGI (SF-539 CNS) [µM],TGI (MALME-3M melanoma) [µM],TGI (HOP-62 NSCLC) [µM],TGI (NCI-H23 lung) [µM],TGI (HOP-92 NSCLC) [µM],GI50 (SK-OV-3 ovarian) [µM],GI50 (SF-295 CNS) [µM],GI50 (UACC-62 melanoma) [µM],GI50 (SF-539 CNS) [µM],GI50 (MALME-3M melanoma) [µM],GI50 (NCI-H23 lung) [µM],GI50 (HOP-92 NSCLC) [µM],GI50 (HOP-62 NSCLC) [µM]
CC[O+]=c1cccc2ssnc1-2,> 100,> 100,> 100,> 100,> 100,> 100,–,–,–,–,–,–,–,–,–,–
Cc1ccc(S(=O)(=O)NC(C)C(=O)O)cc1 (stereo not given),> 100,> 100,> 100,> 100,> 100,–,> 100,> 100,–,–,–,–,–,–,–,–
COC(=O)c1c(C(=O)OC)c(C(=O)OC)c(C(=O)OC)c1C(=O)OC,> 100,> 100,> 100,> 100,> 100,> 100,> 100,> 100,–,–,–,–,–,–,–,–
CCC1N2CCCCC2[C@@H]2c3[nH]c4ccccc4c3CCN12 (stereo not given in full),> 100,> 100,> 100,> 100,> 100,> 100,> 100,> 100,–,–,–,–,–,–,–,–
[O-]c1c(-c2ccccc2)[se]c(-c2ccccc2)[n+]1-c1ccccc1,39.2,12.1,27.5,4.35,29.3,–,29.7,38.1,–,–,–,–,–,–,–,–
O=C(O/N=C1/CCC/C1=C\c1ccccc1)c1ccc(Cl)cc1,> 100,> 100,> 100,> 62.2,> 100,> 89.6,> 95.3,> 100,–,–,–,–,–,–,–,–
N#CC(C(=N/NC(N)=S)/C(=N\NC(N)=S)C(C#N)c1ccccc1)c1ccccc1 (stereo not given),> 10,> 10,> 10,> 10,> 10,> 10,> 10,> 10,–,–,–,–,–,–,–,–
C=CCCC12CCCC(=O)C1Sc1ccc3ccccc3c12 (stereo not given),66.4,51.2,40,28.5,52.7,53.5,55.7,–,–,–,–,–,–,–,–,–
CC(C)(C)c1cc2c(OP(c3ccccc3)c3ccccc3)c(c1)Cc1cc(C(C)(C)C)cc(c1OP(c1ccccc1)c1ccccc1)Cc1cc(C(C)(C)C)cc(c1OP(c1ccccc1)c1ccccc1)Cc1cc(C(C)(C)C)cc(c1OP(c1ccccc1)c1ccccc1)C2,> 50,> 50,> 50,> 50,> 50,> 50,> 50,> 50,> 50,> 50,> 50,> 50,> 50,> 50,> 50,> 50
